# In ChEMBL document CHEMBL4382217 (Bioorg Med Chem, 2018):
# Tests used:
# [1] = biological target: Epidermal growth factor receptor (Homo sapiens, UniProt P00533, L858R); experiment: Inhibition of recombinant human GST-tagged EGFR L858R mutant expressed in baculovirus expression system by fluorescence assay
# HCC827 [2] = experiment: Antiproliferative activity against human HCC827 cells harboring EGFR mutant after 72 hrs by MTS assay; type: functional, cell-based; settings: HCC827, 72 h
# Homo sapiens = species: Homo sapiens; experiment: Selectivity index, ratio of IC50 for recombinant human N-terminal GST-tagged EGFR (696-end residues) expressed in baculovirus expression system to IC50 for recombinant human N-terminal GST-tagged EGFR T790M/L858R double mutant (696-end residues)
# [3] = Toxicity in castrated nude mouse xenografted with human NCI-H1975 cells assessed as body weight loss at 5 to 40 mg/kg, po daily for 14 consecutive days; type: organism-based; settings: in vivo
# HCC827 [4] = experiment: Antitumor activity against human HCC827 cells harboring EGFR exon-19 del mutant xenografted in castrated nude mouse assessed as tumor growth inhibition at 10 mg/kg, po daily for 14 consecutive days measured on day 15 relative to control; type: functional; settings: Mus musculus, HCC827, po, 360 h; read-out: TGI
# HCC827 [5] = experiment: Antitumor activity against human HCC827 cells harboring EGFR exon-19 del mutant xenografted in castrated nude mouse assessed as tumor growth inhibition administered orally daily for 14 consecutive days measured on day 15; type: functional, cell-based
# PC-9 [6] = experiment: Antitumor activity against human PC9 cells harboring EGFR exon-19 del mutant xenografted in castrated nude mouse assessed as tumor growth inhibition administered orally daily for 14 consecutive days measured on day 15; type: functional, cell-based
# PC-9 [7] = experiment: Antitumor activity against human PC9 cells harboring EGFR exon-19 del mutant xenografted in castrated nude mouse assessed as tumor growth inhibition at 2 mg/kg, po daily for 14 consecutive days measured on day 15 relative to control; type: functional; settings: PC-9, po, 360 h, read-out: TGI
# [8] = Selectivity index, ratio of IC50 for human Calu3 cells harboring WT EGFR to IC50 for human HCC827 cells harboring EGFR mutant
# [9] = Selectivity index, ratio of GI50 for human A431 cells harboring WT EGFR to GI50 for human NCI-H1975 cells harboring EGFR T790M/L858R double mutant
# NCI-H1975 [10] = experiment: Antitumor activity against human NCI-H1975 cells harboring EGFR T790M/L858R double mutant xenografted in castrated nude mouse assessed as tumor growth inhibition at 20 mg/kg, po daily for 14 consecutive days measured on day 15 relative to control; type: functional; settings: Mus musculus, NCI-H1975, po, 360 h; read-out: TGI
# [11] = biological target: T1, Epidermal growth factor receptor (Homo sapiens, UniProt P00533); experiment: Inhibition of WT EGFR in human A431 cells assessed as reduction in ERK phosphorylation at T202/Y204 residues up to 10 uM after 4 hrs by Western blot analysis; type: cell-based
# T1 sequence (P00533 whole entry): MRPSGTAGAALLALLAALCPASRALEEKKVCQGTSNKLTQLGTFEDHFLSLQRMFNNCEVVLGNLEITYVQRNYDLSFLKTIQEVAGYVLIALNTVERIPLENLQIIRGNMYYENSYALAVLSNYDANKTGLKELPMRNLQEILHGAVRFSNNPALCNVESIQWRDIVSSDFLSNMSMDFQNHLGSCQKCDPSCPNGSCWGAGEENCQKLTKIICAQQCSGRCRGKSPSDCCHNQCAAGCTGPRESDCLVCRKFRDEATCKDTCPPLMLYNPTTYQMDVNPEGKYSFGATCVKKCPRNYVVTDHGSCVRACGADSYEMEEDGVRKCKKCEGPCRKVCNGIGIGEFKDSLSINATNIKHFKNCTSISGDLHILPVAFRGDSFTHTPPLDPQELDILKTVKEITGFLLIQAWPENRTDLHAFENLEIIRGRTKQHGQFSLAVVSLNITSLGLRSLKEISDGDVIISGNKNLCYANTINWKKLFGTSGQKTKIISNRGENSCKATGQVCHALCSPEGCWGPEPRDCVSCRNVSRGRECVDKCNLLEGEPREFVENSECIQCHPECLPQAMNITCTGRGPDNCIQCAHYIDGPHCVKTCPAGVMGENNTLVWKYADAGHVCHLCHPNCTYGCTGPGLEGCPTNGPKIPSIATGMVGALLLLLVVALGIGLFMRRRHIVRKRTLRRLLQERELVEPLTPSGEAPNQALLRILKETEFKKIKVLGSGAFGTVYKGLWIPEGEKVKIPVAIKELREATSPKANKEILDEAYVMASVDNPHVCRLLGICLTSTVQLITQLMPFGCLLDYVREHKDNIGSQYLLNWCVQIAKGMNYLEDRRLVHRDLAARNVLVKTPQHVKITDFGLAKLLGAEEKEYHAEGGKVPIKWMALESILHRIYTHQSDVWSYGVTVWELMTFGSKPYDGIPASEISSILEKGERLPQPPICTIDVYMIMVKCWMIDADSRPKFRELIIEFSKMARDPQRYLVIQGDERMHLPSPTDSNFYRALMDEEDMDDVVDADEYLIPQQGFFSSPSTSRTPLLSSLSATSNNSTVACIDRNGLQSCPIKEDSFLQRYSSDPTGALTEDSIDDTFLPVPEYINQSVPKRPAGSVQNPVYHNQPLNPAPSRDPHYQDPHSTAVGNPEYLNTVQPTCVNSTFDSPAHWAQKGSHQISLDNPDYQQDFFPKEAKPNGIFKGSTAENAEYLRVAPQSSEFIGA
# [12] = biological target: T1, Epidermal growth factor receptor; experiment: Inhibition of recombinant human N-terminal GST-tagged EGFR (696-end residues) expressed in baculovirus expression system using Srctide as substrate by fluorescence assay
# NCI-H1975 [13] = experiment: Antitumor activity against human NCI-H1975 cells harboring EGFR T790M/L858R double mutant xenografted in castrated nude mouse assessed as tumor growth inhibition at 40 mg/kg, po daily for 14 consecutive days measured on day 15 relative to control; type: functional; settings: 360 h, read-out: TGI
# NCI-H1975 [14] = experiment: Antiproliferative activity against human NCI-H1975 cells harboring EGFR T790M/L858R double mutant after 72 hrs by MTS assay; type: functional, cell-based; settings: Homo sapiens, NCI-H1975, 72 h
# [15] = Selectivity index, ratio of IC50 for human Calu3 cells harboring WT EGFR to IC50 for human PC9 cells harboring EGFR mutant
# HCC827 [16] = experiment: Antitumor activity against human HCC827 cells harboring EGFR exon-19 del mutant xenografted in castrated nude mouse assessed as tumor growth inhibition at 0.3 mg/kg, po daily for 14 consecutive days measured on day 15 relative to control; type: functional; settings: 360 h, read-out: TGI
# [17] = Toxicity in castrated nude mouse xenografted with human HCC827 cells assessed as body weight loss at 0.3 to 10 mg/kg, po daily for 14 consecutive days; type: organism-based; settings: in vivo
# Calu-3 = experiment: Antiproliferative activity against human Calu3 cells harboring WT EGFR after 72 hrs by MTS assay; type: cell-based; settings: Calu-3, 72 h
# [18] = Selectivity index, ratio of IC50 for human A431 cells harboring WT EGFR to IC50 for human HCC827 cells harboring EGFR mutant
# [19] = biological target: Epidermal growth factor receptor (Homo sapiens, UniProt P00533, L858R/T790M); experiment: Inhibition of recombinant human N-terminal GST-tagged EGFR T790M/L858R double mutant (696-end residues) by fluorescence assay
# Epidermal growth factor receptor (Homo sapiens, UniProt P00533, L858R/T790M), sequence (P00533 25-1210 T790M/L858R limits assumed): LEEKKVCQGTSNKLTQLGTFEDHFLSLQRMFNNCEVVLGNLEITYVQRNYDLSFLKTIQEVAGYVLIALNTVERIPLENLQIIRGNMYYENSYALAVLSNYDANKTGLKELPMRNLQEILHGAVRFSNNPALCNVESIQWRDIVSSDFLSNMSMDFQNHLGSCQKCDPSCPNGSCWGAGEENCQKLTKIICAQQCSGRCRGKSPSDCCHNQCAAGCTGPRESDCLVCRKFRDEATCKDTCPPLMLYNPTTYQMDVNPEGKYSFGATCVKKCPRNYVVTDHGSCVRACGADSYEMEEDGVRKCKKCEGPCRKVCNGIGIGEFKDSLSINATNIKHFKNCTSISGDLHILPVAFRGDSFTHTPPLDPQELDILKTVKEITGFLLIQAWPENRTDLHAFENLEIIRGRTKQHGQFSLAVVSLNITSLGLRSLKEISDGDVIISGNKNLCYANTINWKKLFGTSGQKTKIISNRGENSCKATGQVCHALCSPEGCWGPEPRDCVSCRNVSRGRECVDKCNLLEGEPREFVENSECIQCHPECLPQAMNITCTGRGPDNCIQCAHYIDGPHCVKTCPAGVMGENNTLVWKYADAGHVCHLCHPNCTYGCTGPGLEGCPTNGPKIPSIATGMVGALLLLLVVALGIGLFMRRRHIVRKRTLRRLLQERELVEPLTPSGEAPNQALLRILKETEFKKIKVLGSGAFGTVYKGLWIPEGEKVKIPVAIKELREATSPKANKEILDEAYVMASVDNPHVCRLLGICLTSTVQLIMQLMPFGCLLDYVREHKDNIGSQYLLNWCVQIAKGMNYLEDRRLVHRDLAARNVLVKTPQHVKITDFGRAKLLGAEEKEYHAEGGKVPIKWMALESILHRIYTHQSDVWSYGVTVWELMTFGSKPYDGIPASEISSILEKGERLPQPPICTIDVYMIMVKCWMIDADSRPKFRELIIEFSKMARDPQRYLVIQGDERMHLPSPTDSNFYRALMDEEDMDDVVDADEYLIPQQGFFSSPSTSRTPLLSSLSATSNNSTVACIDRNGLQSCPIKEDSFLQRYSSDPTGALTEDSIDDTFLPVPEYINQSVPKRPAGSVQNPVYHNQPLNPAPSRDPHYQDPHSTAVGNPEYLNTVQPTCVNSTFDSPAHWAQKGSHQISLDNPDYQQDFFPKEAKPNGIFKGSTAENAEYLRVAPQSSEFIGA
# PC-9 [20] = experiment: Antiproliferative activity against human PC9 cells harboring EGFR mutant after 72 hrs by MTS assay; type: functional, cell-based; settings: PC-9, 72 h
# PC-9 [21] = experiment: Antitumor activity against human PC9 cells harboring EGFR exon-19 del mutant xenografted in castrated nude mouse assessed as tumor growth inhibition at 20 mg/kg, po daily for 14 consecutive days measured on day 15 relative to control; type: functional; settings: PC-9, po, 360 h, read-out: TGI
# [22] = Selectivity index, ratio of IC50 for human Calu3 cells harboring WT EGFR to IC50 for human NCI-H1975 cells harboring EGFR T790M/L858R double mutant
# [23] = Selectivity index, ratio of IC50 for human A431 cells harboring WT EGFR to IC50 for human NCI-H1975 cells harboring EGFR T790M/L858R double mutant
# PC-9 [24] = experiment: Antitumor activity against human PC9 cells harboring EGFR exon-19 del mutant xenografted in castrated nude mouse assessed as tumor growth inhibition at 5 mg/kg, po daily for 14 consecutive days measured on day 15 relative to control; type: functional; settings: PC-9, po, 360 h, read-out: TGI
# PC-9 [25] = experiment: Antitumor activity against human PC9 cells harboring EGFR exon-19 del mutant xenografted in castrated nude mouse assessed as tumor growth inhibition at 10 mg/kg, po daily for 14 consecutive days measured on day 15 relative to control; type: functional; settings: Mus musculus, PC-9, po, 360 h; read-out: TGI
# Calu-6 = experiment: Antiproliferative activity against human Calu6 cells harboring WT EGFR after 72 hrs by MTS assay; type: cell-based; settings: Calu-6, 72 h
# HCC827 [26] = experiment: Antitumor activity against human HCC827 cells harboring EGFR exon-19 del mutant xenografted in castrated nude mouse assessed as tumor growth inhibition at 3 mg/kg, po daily for 14 consecutive days measured on day 15 relative to control; type: functional; settings: 360 h, read-out: TGI
# HCC827 [27] = experiment: Antitumor activity against human HCC827 cells harboring EGFR exon-19 del mutant xenografted in castrated nude mouse assessed as tumor growth inhibition at 1 mg/kg, po daily for 14 consecutive days measured on day 15 relative to control; type: functional; settings: 360 h, read-out: TGI
# [28] = biological target: T1, Epidermal growth factor receptor; experiment: Inhibition of WT EGFR phosphorylation at Y1068 residue in human A431 cells up to 10 uM after 4 hrs by Western blot analysis; type: cell-based
# [29] = (§1) Antiproliferative activity against human A431 cells harboring WT EGFR after 72 hrs by MTS assay; type: cell-based, A-431; settings: human, A431 cells harboring WT EGFR
# A-431 = experiment: as §1; type: cell-based; settings: Homo sapiens, A-431, 72 h
# NCI-H1975 [30] = experiment: Antitumor activity against human NCI-H1975 cells harboring EGFR T790M/L858R double mutant xenografted in castrated nude mouse assessed as tumor growth inhibition at 10 mg/kg, po daily for 14 consecutive days measured on day 15 relative to control; type: functional; settings: 360 h, read-out: TGI
# [31] = Toxicity in castrated nude mouse xenografted with human PC9 cells assessed as body weight loss at 2 to 20 mg/kg, po daily for 14 consecutive days; type: organism-based; settings: in vivo
# NCI-H1975 [32] = experiment: Antitumor activity against human NCI-H1975 cells harboring EGFR T790M/L858R double mutant xenografted in castrated nude mouse assessed as tumor growth inhibition administered orally daily for 14 consecutive days measured on day 15; type: functional, cell-based
# [33] = Selectivity index, ratio of IC50 for human A431 cells harboring WT EGFR to IC50 for human PC9 cells harboring EGFR mutant
# NCI-H1975 [34] = experiment: Antitumor activity against human NCI-H1975 cells harboring EGFR T790M/L858R double mutant xenografted in castrated nude mouse assessed as tumor growth inhibition at 5 mg/kg, po daily for 14 consecutive days measured on day 15 relative to control; type: functional; settings: 360 h, read-out: TGI
# Epidermal growth factor receptor (Homo sapiens, UniProt P00533, L858R), sequence (P00533 25-1210 L858R limits assumed): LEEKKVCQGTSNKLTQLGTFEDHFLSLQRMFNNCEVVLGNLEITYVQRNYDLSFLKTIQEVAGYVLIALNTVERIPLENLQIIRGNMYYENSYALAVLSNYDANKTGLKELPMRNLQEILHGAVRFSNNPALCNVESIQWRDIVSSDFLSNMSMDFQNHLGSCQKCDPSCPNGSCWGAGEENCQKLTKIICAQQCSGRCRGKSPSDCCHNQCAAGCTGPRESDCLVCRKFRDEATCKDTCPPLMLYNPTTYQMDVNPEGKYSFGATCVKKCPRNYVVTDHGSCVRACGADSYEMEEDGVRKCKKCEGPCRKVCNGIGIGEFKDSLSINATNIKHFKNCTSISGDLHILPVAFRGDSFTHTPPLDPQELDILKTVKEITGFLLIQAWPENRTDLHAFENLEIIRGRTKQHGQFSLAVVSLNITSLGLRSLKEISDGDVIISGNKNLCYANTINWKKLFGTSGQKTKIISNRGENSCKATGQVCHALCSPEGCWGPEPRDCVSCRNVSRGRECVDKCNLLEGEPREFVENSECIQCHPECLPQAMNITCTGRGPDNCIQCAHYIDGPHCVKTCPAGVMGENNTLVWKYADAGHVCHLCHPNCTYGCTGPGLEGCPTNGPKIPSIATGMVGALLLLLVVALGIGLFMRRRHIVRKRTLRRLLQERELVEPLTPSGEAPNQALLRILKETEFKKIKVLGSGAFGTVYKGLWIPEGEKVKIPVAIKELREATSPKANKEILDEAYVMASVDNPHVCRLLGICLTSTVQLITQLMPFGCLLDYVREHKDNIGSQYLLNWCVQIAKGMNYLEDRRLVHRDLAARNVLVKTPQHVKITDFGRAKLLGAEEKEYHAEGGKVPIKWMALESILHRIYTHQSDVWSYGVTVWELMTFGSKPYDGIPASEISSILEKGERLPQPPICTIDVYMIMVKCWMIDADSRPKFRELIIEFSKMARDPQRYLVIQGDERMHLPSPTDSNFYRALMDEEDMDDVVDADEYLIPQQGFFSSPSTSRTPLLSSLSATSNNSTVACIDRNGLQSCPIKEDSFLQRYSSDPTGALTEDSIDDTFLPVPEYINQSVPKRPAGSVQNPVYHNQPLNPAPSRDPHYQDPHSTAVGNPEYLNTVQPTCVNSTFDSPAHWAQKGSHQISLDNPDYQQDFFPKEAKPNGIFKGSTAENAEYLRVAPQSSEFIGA
smiles,measurement,setting,value
C=CC(=O)Nc1cc(Nc2nccc(-c3cn(C)c4cccnc34)n2)c(OC)cc1N(C)CCN(C)C,IC50,[1],5500 nM
same,IC50,HCC827 [2],15 nM
same,Ratio IC50,Homo sapiens,30
same,Activity,[3],Non-Toxic
same,inhibition in vivo at 10 mg/kg,HCC827 [4],125%
same,TGI,HCC827 [5],Dose-dependent effect
same,TGI,PC-9 [6],Dose-dependent effect
same,inhibition in vivo at 2 mg/kg,PC-9 [7],67%
same,Ratio IC50,[8],666.7
same,RatioGI50,[9],73.5
same,inhibition in vivo at 20 mg/kg,NCI-H1975 [10],99%
same,inhibition (INH),[11],Not Active
same,IC50,[12],63000 nM
same,inhibition in vivo at 40 mg/kg,NCI-H1975 [13],106%
same,GI50,NCI-H1975 [14],6.8 nM
same,IC50,NCI-H1975 [14],140 nM
same,Ratio IC50,[15],50
same,inhibition in vivo at 0.3 mg/kg,HCC827 [16],74%
same,Activity,[17],Non-Toxic
same,IC50,Calu-3,> 10000 nM
same,Ratio IC50,[18],219.3
same,IC50,[19],2100 nM
same,IC50,PC-9 [20],200 nM
same,inhibition in vivo at 20 mg/kg,PC-9 [21],107%
same,Ratio IC50,[22],71.4
same,Ratio IC50,[23],23.5
same,inhibition in vivo at 5 mg/kg,PC-9 [24],94%
same,inhibition in vivo at 10 mg/kg,PC-9 [25],104%
same,IC50,Calu-6,> 10000 nM
same,inhibition in vivo at 3 mg/kg,HCC827 [26],119%
same,inhibition in vivo at 1 mg/kg,HCC827 [27],83%
same,inhibition (INH),[28],Not Active
same,GI50 at 72 h,[29],500 nM
same,IC50,A-431,3290 nM
same,inhibition in vivo at 10 mg/kg,NCI-H1975 [30],84%
same,Activity,[31],Non-Toxic
same,TGI,NCI-H1975 [32],Dose-dependent effect
same,Ratio IC50,[33],16.5
same,inhibition in vivo at 5 mg/kg,NCI-H1975 [34],48%
C=CC(=O)Nc1cc(Nc2nccc(-c3cn(C)c4cccnc34)n2)c(OC(F)F)cc1N1CCN(C)CC1,RatioGI50,[9],8.7
same,GI50,NCI-H1975 [14],166 nM
same,GI50 at 72 h,[29],1440 nM
C=CC(=O)Nc1cc(Nc2nccc(-c3cn(C)c4cccnc34)n2)c(OC)cc1N1CCC[C@H]1CN(C)C,RatioGI50,[9],0.7
same,GI50,NCI-H1975 [14],2880 nM
same,GI50 at 72 h,[29],2100 nM
C=CC(=O)Nc1cc(Nc2nccc(-c3noc4ccccc34)n2)c(OC(F)F)cc1N1CCC[C@H]1CN(C)C,RatioGI50,[9],3.5
same,GI50,NCI-H1975 [14],285 nM
same,GI50 at 72 h,[29],1000 nM
